Measurements reported in PMC8286840, “Identifying SARS-CoV-2 antiviral compounds by screening for small molecule inhibitors of Nsp3 papain-like protease” (Biochemical Journal, 2021).
Where a name gives a salt, the structure may show the parent alone. Read-outs that look alike come from different tables or passages of the source.

Columns and labels:
[1] = molecular target: T1, SARS-CoV-2 PLpro (nsp3 1564–1878) (Severe acute respiratory syndrome coronavirus 2, UniProt P0DTD1); test: biochemical; design: FRET-quenched peptide (Pro3) cleavage by PLpro, 10 min pre-incubation, slope over 20 min, normalised to no-compound control; details: high concentration screen, read-out: % of control remaining
[2] = molecular target: T1, SARS-CoV-2 PLpro (nsp3 1564–1878); test: biochemical; design: FRET-quenched peptide (Pro3) cleavage by PLpro, 10 min pre-incubation, slope over 20 min, normalised to no-compound control; details: low concentration screen, read-out: % of control remaining

CCCCCCCCCCCCC/C=C/[C@@H](O)[C@H](CO)NCCCCCCCC [C8 Ceramine]
remaining activity at 3.75 µM ([1]; Well no.=4409): 95.2% | remaining activity at 1.25 µM ([2]; Well no.=4409): 101%

O=CN1CC/C(=C\c2ccc3c(c2)OCO3)C1=O [KNK437]
remaining activity at 3.75 µM ([1]; Well no.=8768): 89.6% | remaining activity at 1.25 µM ([2]; Well no.=8768): 92.1%

Nc1nc2c(nc(Br)n2[C@@H]2O[C@@H]3COP(=O)(O)O[C@H]3[C@H]2O)c(=O)[nH]1 [8-Bromo-cGMP sodium]
remaining activity at 3.75 µM ([1]; Well no.=214): 102% | remaining activity at 1.25 µM ([2]; Well no.=214): 102%

O=C(O)CCCCCCCC(=O)O [Azelaic acid]
remaining activity at 3.75 µM ([1]; Well no.=243): 98.7% | remaining activity at 3.75 µM ([1]; Well no.=6157): 105% | remaining activity at 1.25 µM ([2]; Well no.=243): 100% | remaining activity at 1.25 µM ([2]; Well no.=6157): 108%

O=C(O)c1ccccn1 [PCL 016]
remaining activity at 3.75 µM ([1]; Well no.=7107): 98.2% | remaining activity at 1.25 µM ([2]; Well no.=7107): 99.9%

Cc1ccc(-c2ncc(Cl)cc2-c2ccc(S(C)(=O)=O)cc2)cn1 [Etoricoxib]
remaining activity at 3.75 µM ([1]; Well no.=1925): 106% | remaining activity at 1.25 µM ([2]; Well no.=1925): 106%

COC(=O)C1=C(C)NC(C)=C(C(=O)OCCN(C)Cc2ccccc2)C1c1cccc([N+](=O)[O-])c1 (stereo not shown) [Nicardipine hydrochloride]
remaining activity at 3.75 µM ([1]; Well no.=811): 103% | remaining activity at 1.25 µM ([2]; Well no.=811): 103%

COc1cc([C@@H]2c3cc4c(cc3[C@@H](O[C@@H]3O[C@@H]5CO[C@@H](C)O[C@H]5[C@H](O)[C@H]3O)[C@H]3COC(=O)[C@H]23)OCO4)cc(OC)c1O [Etoposide]
remaining activity at 3.75 µM ([1]; Well no.=454): 97.1% | remaining activity at 3.75 µM ([1]; Well no.=1670): 99.3% | remaining activity at 3.75 µM ([1]; Well no.=3279): 102% | remaining activity at 3.75 µM ([1]; Well no.=6154): 103% | remaining activity at 1.25 µM ([2]; Well no.=454): 103% | remaining activity at 1.25 µM ([2]; Well no.=1670): 99.8% | remaining activity at 1.25 µM ([2]; Well no.=6154): 102%

CC(=O)OCC(=O)[C@@]12N=C(C)O[C@@H]1C[C@H]1[C@@H]3CCC4=CC(=O)C=C[C@]4(C)[C@H]3[C@@H](O)C[C@@]12C [Deflazacort]
remaining activity at 3.75 µM ([1]; Well no.=5566): 104% | remaining activity at 3.75 µM ([1]; Well no.=7613): 97.5% | remaining activity at 1.25 µM ([2]; Well no.=5566): 103% | remaining activity at 1.25 µM ([2]; Well no.=7613): 102%

CCCCCCCC/C=C\CCCCCCCCCCCCCC(=O)O [15(Z)-Tetracosenoic acid]
remaining activity at 3.75 µM ([1]; Well no.=4504): 98.5% | remaining activity at 1.25 µM ([2]; Well no.=4504): 93.9%

O=C(c1ccc(C(=O)N2CCC(N3CCCC3)CC2)c(Nc2ccccc2)c1)N1CCC(N2CCCC2)CC1 [UNC1215]
remaining activity at 3.75 µM ([1]; Well no.=5417): 100% | remaining activity at 1.25 µM ([2]; Well no.=5417): 98.6%

Cc1cc2c(F)c(Oc3ncnn4cc(OC[C@@H](C)OC(=O)[C@H](C)N)c(C)c34)ccc2[nH]1 [Brivanib alaninate (BMS-582664)]
remaining activity at 3.75 µM ([1]; Well no.=5049): 104% | remaining activity at 1.25 µM ([2]; Well no.=5049): 102%

CN(C)CCC(c1ccc(Cl)cc1)c1ccccn1 (stereo not shown) [Chlorpheniramine (maleate)]
remaining activity at 3.75 µM ([1]; Well no.=7525): 101% | remaining activity at 1.25 µM ([2]; Well no.=7525): 103%

CCCCCCCC/C=C\CCCCCCCC(=O)OCC(CO)OC(=O)CCCCCCC/C=C\CCCCCCCC (stereo not shown) [1,2-Dioleoyl-glycerol (18:1)]
remaining activity at 3.75 µM ([1]; Well no.=4478): 100% | remaining activity at 1.25 µM ([2]; Well no.=4478): 96%

N=C(N)NC(=O)c1nc(Cl)c(N)nc1N [Amiloride hydrochloride]
remaining activity at 3.75 µM ([1]; Well no.=148): 94.6% | remaining activity at 1.25 µM ([2]; Well no.=148): 96.9%

NCCCC[C@@H]1NC(=O)[C@@H](Cc2ccc(O)cc2)NC(=O)[C@H](CC(=O)O)NC(=O)CNC(=O)[C@H](CCCN=C(N)N)NC1=O [Cyclo(RGDyK) trifluoroacetate]
remaining activity at 3.75 µM ([1]; Well no.=8698): 97.8% | remaining activity at 1.25 µM ([2]; Well no.=8698): 101%

CCCCCCCCCCCCCCCCCCc1ccc(C(=O)/C=C/C(=O)O)cc1 [(2E)-4-(4-octadecylphenyl)-4-oxo-2-butenoic acid]
remaining activity at 3.75 µM ([1]; Well no.=5554): 99.3% | remaining activity at 1.25 µM ([2]; Well no.=5554): 97.9%

CNC(=O)CCc1cc(-c2ccc(-c3ccc(C(F)(F)F)cc3)cc2)nn1-c1ccc(N2CCNCC2)cc1 [OSU-T315]
remaining activity at 3.75 µM ([1]; Well no.=7022): 93.8% | remaining activity at 1.25 µM ([2]; Well no.=7022): 92.9%

Cn1cc(/C=C2\C(=O)Nc3ccc(S(N)(=O)=O)cc32)c2ccccc21 [Syk Inhibitor]
remaining activity at 3.75 µM ([1]; Well no.=2595): 96.7% | remaining activity at 1.25 µM ([2]; Well no.=2595): 96.8%

O=C(O)CNC(=O)c1cccc(O)c1 [3-Hydroxyhippuric acid]
remaining activity at 3.75 µM ([1]; Well no.=7219): 99.6% | remaining activity at 1.25 µM ([2]; Well no.=7219): 102%

O=C(O)C1=CCNCC1 [Isoguvacine hydrochloride]
remaining activity at 3.75 µM ([1]; Well no.=412): 91.8% | remaining activity at 1.25 µM ([2]; Well no.=412): 94.2%

C=CC(=O)N1C/C(=C\c2ccc([N+](=O)[O-])cc2)C(=O)/C(=C/c2ccc([N+](=O)[O-])cc2)C1 [1-acryloyl-3,5-bis((E)-4-nitrobenzylidene)piperidin-4-one]
remaining activity at 3.75 µM ([1]; Well no.=6015): 99.9% | remaining activity at 1.25 µM ([2]; Well no.=6015): 103%

CN(C)c1ccc(C2Nc3ccc4ccccc4c3C3=C2C(=O)CC(C)(C)C3)cc1Br (stereo not shown) [5-[3-bromo-4-(dimethylamino)phenyl]-2,2-dimethyl-2,3,5,6-tetrahydrobenzo[a]phenanthridin-4(1H)-one]
remaining activity at 3.75 µM ([1]; Well no.=5515): 106% | remaining activity at 1.25 µM ([2]; Well no.=5515): 106%

CCCNC[C@H](O)COc1ccccc1C(=O)CCc1ccccc1 [(S)-(-)-propafenone hydrochloride]
remaining activity at 3.75 µM ([1]; Well no.=1451): 93.6% | remaining activity at 1.25 µM ([2]; Well no.=1451): 96.2%

O=c1ccn([C@@H]2O[C@H](COP(=O)(O)OP(=O)(O)OP(=O)(O)O)[C@@H](O)[C@H]2O)c(=O)[nH]1 [Uridine triphosphate (trisodium salt)]
remaining activity at 3.75 µM ([1]; Well no.=7810): 105% | remaining activity at 1.25 µM ([2]; Well no.=7810): 105%

CCCCC(=O)N(Cc1ccc(-c2ccccc2-c2nnn[nH]2)cc1)[C@H](C(=O)O)C(C)C [Valsartan]
remaining activity at 3.75 µM ([1]; Well no.=7542): 98% | remaining activity at 3.75 µM ([1]; Well no.=8247): 99.1% | remaining activity at 1.25 µM ([2]; Well no.=7542): 94.7% | remaining activity at 1.25 µM ([2]; Well no.=8247): 105%

COc1ccc(C(=O)Nc2sc3c(c2C(N)=O)CCCC3)cc1OC [TCS 359 - 2-[(3,4-Dimethoxybenzoyl)amino]-4,5,6,7-benzo[b]thiophene-3-carboxamide]
remaining activity at 3.75 µM ([1]; Well no.=2580): 90% | remaining activity at 1.25 µM ([2]; Well no.=2580): 93.7%

CCS(=O)(=O)Nc1ccc2c(c1)/C(=C(/Nc1ccc(CN3CCCCC3)cc1)c1ccccc1)C(=O)N2 [Hesperadin]
remaining activity at 3.75 µM ([1]; Well no.=5262): 88.4% | remaining activity at 1.25 µM ([2]; Well no.=5262): 99.1%

CCCN(CCC)[C@@H]1CCc2c(F)ccc(O)c2C1 [R(+)-UH-301 hydrochloride]
remaining activity at 3.75 µM ([1]; Well no.=1382): 98.5% | remaining activity at 1.25 µM ([2]; Well no.=1382): 98.7%

Cc1ccc(C)c(OCCCC(C)(C)C(=O)O)c1 [Gemfibrozil]
remaining activity at 3.75 µM ([1]; Well no.=2174): 98.7% | remaining activity at 1.25 µM ([2]; Well no.=2174): 95.4%

C[C@@H](NCCCc1cccc(C(F)(F)F)c1)c1cccc2ccccc12 [Cinacalcet (hydrochloride)]
remaining activity at 3.75 µM ([1]; Well no.=7426): 104% | remaining activity at 1.25 µM ([2]; Well no.=7426): 104%
